Assay results reported in patent publication US20220403032A1, “THERAPY FOR DIABETES USING STEM CELL MIGRATION AGENT” (Biozipcode, Inc., priority 2019, published 2022).

Test system: diabetic patients (type 1 and type 2 diabetes mellitus)
Assay: Research Plan 2: therapy of diabetes mellitus targeting a bone marrow-derived abnormal hematopoietic stem cell
Assay type: in vivo, human
Details: type 1 and type 2 diabetic patients; twelve weeks of therapy; predicted result

Substance: insulin [insulin alone]
- Effect of eliminating an abnormal hematopoietic stem cell: not eliminated
- Effect of healing diabetes mellitus: not observed
- Therapeutic effect on a complication: observed to some extent, but the complication does not heal
